Source: ChEMBL document CHEMBL4622859, “Discovery of stereospecific cytotoxicity of (8R,8'R)-trans-arctigenin against insect cells and structure-activity relationship on aromatic ring” (Bioorg Med Chem Lett, 2020)
The source made the active and inactive calls. The rule behind the calls is not given here.

What was measured:
[1] = Cytotoxicity against Spodoptera frugiperda Sf9 cells assessed as reduction in cell viability; assay type: cell-based
HL-60 = test: Cytotoxicity against human HL60 cells assessed as reduction in cell viability; assay type: functional, cell-based
[2] = Cytotoxicity against Aedes albopictus NIAS-AeAl-2 cells assessed as reduction in cell viability; assay type: functional, cell-based
[3] = Effect on 28s ribosomal RNA expression in Spodoptera frugiperda Sf9 cells; assay type: functional
Sf9 = test: Induction of DNA degradation in Spodoptera frugiperda Sf9 cells by DNA ladder assay; assay type: functional, cell-based

| SMILES | IC50 [1] | further results |
| --- | --- | --- |
| Cc1ccccc1C[C@H]1COC(=O)[C@@H]1Cc1ccc(I)cc1 | 21 µM |  |
| COc1ccc(C[C@@H]2COC(=O)[C@H]2Cc2ccc(I)cc2)cc1OC | 25 µM |  |
| O=C1OC[C@H](Cc2ccc(F)cc2)[C@H]1Cc1ccc(I)cc1 | 22 µM |  |
| COc1ccccc1C[C@H]1COC(=O)[C@@H]1Cc1ccc(I)cc1 | 22 µM |  |
| COc1ccc(C[C@H]2C(=O)OC[C@@H]2Cc2ccc(OC)c(OC)c2)cc1O | 19 µM |  |
| COc1cccc(C[C@H]2COC(=O)[C@@H]2Cc2ccc(I)cc2)c1 | 15 µM |  |
| COc1cc(C[C@H]2C(=O)OC[C@H]2Cc2ccc(OC)c(OC)c2)ccc1O | > 100 µM | IC50 (HL-60): 13 µM; IC50 [2]: 57 µM |
| O=C1OC[C@H](Cc2ccc(Cl)cc2)[C@H]1Cc1ccc(I)cc1 | 18 µM |  |
| COc1ccc(C[C@H]2COC(=O)[C@@H]2Cc2ccc(OC)c(OC)c2)cc1OC | 15 µM |  |
| COc1ccc(C[C@H]2COC(=O)[C@@H]2Cc2ccc3c(c2)OCO3)cc1OC [(-)-KUSUNOKININ] | 8.2 µM | IC50 [2]: 2.7 µM |
| COc1ccc(C[C@H]2COC(=O)[C@@H]2Cc2ccc(C(F)(F)F)cc2)cc1OC | 20 µM | IC50 [2]: 10 µM |
| COc1cccc(C[C@H]2C(=O)OC[C@@H]2Cc2ccc(OC)c(OC)c2)c1 | 17 µM |  |
| COc1ccc(C[C@@H]2COC(=O)[C@H]2Cc2ccc3c(c2)OCO3)cc1OC | 41 µM |  |
| COc1ccc(C[C@H]2COC(=O)[C@@H]2Cc2ccc(Br)cc2)cc1OC | 9.1 µM |  |
| COc1ccc(C[C@H]2COC(=O)[C@@H]2Cc2ccc(Cl)cc2)cc1OC | 10 µM | IC50 [2]: 2.3 µM |
| COc1ccc(C[C@H]2COC(=O)[C@@H]2Cc2ccccc2O)cc1OC | 54 µM | IC50 [2]: 17 µM |
| O=C1OC[C@H](Cc2ccccc2O)[C@H]1Cc1ccc(I)cc1 | 18 µM |  |
| COc1ccc(C[C@H]2COC(=S)[C@@H]2Cc2ccc3c(c2)OCO3)cc1OC | 7.2 µM |  |
| O=C1OC[C@H](Cc2ccccc2F)[C@H]1Cc1ccc(I)cc1 | 20 µM |  |
| COc1ccc(C[C@H]2COC(=O)[C@@H]2Cc2cccc(C)c2)cc1OC | 12 µM |  |
| COc1ccc(C[C@@H]2COC(=O)[C@H]2Cc2ccc(C)cc2)cc1OC | 42 µM |  |
| COc1ccc(C[C@H]2COC(=O)[C@@H]2Cc2ccc(I)cc2)cc1O | 21 µM |  |
| COc1ccc(C[C@H]2C(=O)OC[C@@H]2Cc2ccc(OC)c(OC)c2)cc1 | 11 µM | IC50 [2]: 4.3 µM |
| COc1ccc(C[C@H]2COC(=O)[C@@H]2Cc2ccccc2Cl)cc1OC | 24 µM |  |
| O=C1OC[C@H](Cc2ccccc2C(F)(F)F)[C@H]1Cc1ccc(I)cc1 | 24 µM |  |

| SMILES | IC50 [1] | further results |
| --- | --- | --- |
| COc1ccc(C[C@H]2COC(=O)[C@@H]2Cc2cccc(Cl)c2)cc1OC | 17 µM |  |
| COc1ccc(C[C@H]2COC(=S)[C@@H]2Cc2ccc(I)cc2)cc1OC | 4.7 µM | IC50 [2]: 2.4 µM |
| COc1ccc(C[C@H]2COC(=O)[C@@H]2Cc2ccc(C)c(C)c2)cc1OC | 9.3 µM |  |
| COc1cc(C[C@@H]2C(=O)OC[C@H]2Cc2ccc(OC)c(OC)c2)ccc1O | 80 µM | IC50 (HL-60): 23 µM; IC50 [2]: 28 µM; Activity [3]: Active |
| COc1ccc(C[C@H]2COC(=S)[C@@H]2Cc2cc(F)c(F)c(F)c2)cc1OC | 22 µM | IC50 [2]: 15 µM |
| O=C1OC[C@H](Cc2cccc(C(F)(F)F)c2)[C@H]1Cc1ccc(I)cc1 | 19 µM |  |
| Cc1ccc(C[C@H]2COC(=O)[C@@H]2Cc2ccc(I)cc2)cc1 | 20 µM |  |
| COc1cc(C[C@H]2COC(=O)[C@@H]2Cc2ccc(I)cc2)ccc1O | 19 µM |  |
| COc1cc(C[C@@H]2C(=O)OC[C@@H]2Cc2ccc(OC)c(OC)c2)ccc1O | 13 µM | IC50 (HL-60): 8.5 µM; IC50 [2]: 6.3 µM |
| O=C1OC[C@H](Cc2cccc(O)c2)[C@H]1Cc1ccc(I)cc1 | 18 µM |  |
| COc1ccc(C[C@H]2COC(=O)[C@@H]2Cc2ccc(F)cc2)cc1OC | 28 µM | IC50 [2]: 8.3 µM |
| COc1ccc(C[C@H]2COC(=O)[C@@H]2Cc2ccccc2)cc1OC | 19 µM |  |
| COc1ccccc1C[C@H]1C(=O)OC[C@@H]1Cc1ccc(OC)c(OC)c1 | 24 µM |  |
| COc1ccc(C[C@@H]2COC(=O)[C@H]2Cc2ccc(O)cc2)cc1OC | 29 µM |  |
| COc1ccc(C[C@H]2COC(=O)[C@@H]2Cc2ccccc2C)cc1OC | 28 µM |  |
| COc1ccc(C[C@H]2COC(=O)[C@@H]2Cc2ccc(C)cc2)cc1OC | 11 µM | IC50 [2]: 3.5 µM |
| COc1ccc(C[C@H]2COC(=O)[C@@H]2Cc2ccc(Cl)c(Cl)c2)cc1OC | 25 µM |  |
| COc1ccc(C[C@H]2COC(=O)[C@@H]2Cc2ccc(O)c(C)c2)cc1OC | 11 µM |  |
| COc1ccc(C[C@H]2COC(=O)[C@@H]2Cc2ccccc2I)cc1OC | 18 µM |  |
| O=C1OC[C@H](Cc2ccc(C(F)(F)F)cc2)[C@H]1Cc1ccc(I)cc1 | 15 µM |  |
| O=C1OC[C@H](Cc2ccccc2Cl)[C@H]1Cc1ccc(I)cc1 | 21 µM |  |
| CCc1ccc(C[C@H]2C(=O)OC[C@@H]2Cc2ccc(OC)c(OC)c2)cc1 | 17 µM |  |
| O=C1OC[C@H](Cc2ccccc2)[C@H]1Cc1ccc(I)cc1 | 24 µM |  |
| COc1ccc(C[C@H]2COC(=O)[C@@H]2Cc2ccc(I)cc2)cc1 | 21 µM |  |
| COc1ccc(C[C@H]2COC(=O)[C@@H]2Cc2cc(OC)c(O)c(OC)c2)cc1OC | 9.1 µM |  |

| SMILES | IC50 [1] | further results |
| --- | --- | --- |
| COc1ccc(C[C@H]2COC(=O)[C@@H]2Cc2ccccc2C(F)(F)F)cc1OC | 25 µM |  |
| O=C1OC[C@H](Cc2ccc3c(c2)OCO3)[C@H]1Cc1ccc(I)cc1 | 12 µM |  |
| COc1ccc(C[C@H]2COC(=O)[C@@H]2Cc2ccc(O)c(O)c2)cc1OC | 10 µM |  |
| O=C1OC[C@H](Cc2cccc(F)c2)[C@H]1Cc1ccc(I)cc1 | 22 µM |  |
| O=C1OC[C@H](Cc2ccc3c(c2)OCCO3)[C@H]1Cc1ccc(I)cc1 | 10 µM |  |
| COc1ccc(C[C@H]2COC(=O)[C@@H]2Cc2cc(F)c(F)c(F)c2)cc1OC | 44 µM |  |
| O=C1OC[C@H](Cc2cccc(Cl)c2)[C@H]1Cc1ccc(I)cc1 | 27 µM |  |
| COc1ccc(C[C@H]2COC(=O)[C@@H]2Cc2cccc(C(F)(F)F)c2)cc1OC | 19 µM |  |
| O=C1OC[C@H](Cc2ccc(O)cc2)[C@H]1Cc1ccc(I)cc1 | 21 µM |  |
| COc1ccc(C[C@H]2COC(=O)[C@@H]2Cc2ccccc2F)cc1OC | 43 µM |  |
| COc1ccc(C[C@H]2COC(=O)[C@@H]2Cc2ccc(O)cc2)cc1OC | 9.9 µM | IC50 [2]: 1 µM |
| COc1ccc(C[C@H]2COC(=O)[C@@H]2Cc2ccc3c(c2)OCCO3)cc1OC | 15 µM |  |
| COc1ccc(C[C@H]2COC(=O)[C@@H]2Cc2cccc(I)c2)cc1OC | 5.4 µM |  |
| COc1ccc(C[C@H]2COC(=S)[C@@H]2Cc2ccccc2C)cc1OC | 19 µM |  |
| COc1ccc(C[C@H]2COC(=O)[C@@H]2Cc2ccc(I)cc2)cc1OC | 6.3 µM | IC50 [2]: 2.9 µM |
| COc1ccc(C[C@H]2COC(=O)[C@@H]2Cc2ccc(C(C)(C)C)cc2)cc1OC | 17 µM |  |
| COc1cc(C[C@H]2C(=O)OC[C@@H]2Cc2ccc(OC)c(OC)c2)ccc1O [ARCTIGENIN] | 6.7 µM | IC50 (HL-60): 13 µM; IC50 [2]: 0.73 µM; Activity (Sf9): inactive; Activity [3]: Active |
| COc1ccc(C[C@H]2COC(=O)[C@@H]2Cc2cccc(O)c2)cc1OC | 22 µM |  |
| Cc1cccc(C[C@H]2COC(=O)[C@@H]2Cc2ccc(I)cc2)c1 | 24 µM |  |
| COc1ccc(C[C@@H]2C(=O)OC[C@H]2Cc2ccc(OC)c(OC)c2)cc1 | 47 µM |  |
| COc1ccc(C[C@H]2COC(=O)[C@@H]2Cc2ccc(F)c(F)c2)cc1OC | 64 µM | IC50 [2]: 13 µM |
| COc1ccc(C[C@@H]2COC(=O)[C@H]2Cc2ccc(Cl)cc2)cc1OC | 40 µM |  |
| COc1ccc(C[C@H]2COC(=O)[C@@H]2Cc2cccc(F)c2)cc1OC | 23 µM |  |
| COc1ccc(C[C@H]2COC(=O)[C@@H]2Cc2cccc3c2OCO3)cc1OC | 46 µM |  |
